Patent US20230293524A1, “OTIC FORMULATIONS FOR DRUG-INDUCED OTOTOXICITY” (Spiral Therapeutics Inc, priority 2019, published 2023)
“Also recorded” adds a separate entry of the source.

What was measured:
[1] = Cisplatin binding, % bound
[2] = tested on: outer hair cells (OHCs) and inner hair cells (IHCs); assay: Cochlear explant model: hair cell protection against cisplatin; format: cell-based, Sprague-Dawley rats; conditions: for EC100: Rattus norvegicus, read-out: Ex-vivo Efficacy Conc. for complete protection of hair cells (uM); for protection of hair cells against cisplatin: 1.5 hour pretreatment followed by co-treatment at different concentrations with 10 μM cisplatin
Text: (§1) For hair cell and spiral ganglion assessment, postnatal Sprague-Dawley rats (P2-P4) of both sexes are anesthetized with isoflurane and decapitated. Temporal bones are removed and transferred to a cell culture dish with ice-cold Ca^2+/Mg^2+-containing phosphate-buffered saline (PBS; Invitrogen) or cold HBSS medium enriched with glucose. Under microscopic visualization, the cochlear capsules are carefully removed from the temporal bone using forceps and transferred to a new cell culture dish containing ice-cold PBS. The cochleae are then dissected from the cochlear capsule using fine forceps. The stria vascularis is removed from the cochlear tissue and discarded. Dissected cochlear epithelia are transferred to permeable membrane inserts (Millicell organotypic culture plate inserts, Millipore) which are placed into 1 mL of culture media (Dulbecco's modified Eagle's medium (high glucose, Glutamax, 25 mM HEPES) with 10% fetal bovine serum, 1% N2 supplement and 10 units/ml penicillin) in a 6-well plate. Up to 4 cochleae are placed onto each membrane. Explants are placed in a humidified chamber with 5% CO2 at 37° C. for a minimum of 18 hours prior to treatment. Cultures are then pre-treated with test compounds and returned to the incubator for a period of 10 minutes to 48 hours.
(§2) Following the incubation period, cochlear samples are fixed in 4% paraformaldehyde for a minimum of 30 minutes after treatment then permeabilized in 0.5% Triton in PBS (PBST) for 1 hour, followed by overnight incubation at 4° C. in primary antibodies in 10% goat or donkey serum (Sigma). Samples are then rinsed in PBST 2 times for 10 minutes each then incubated in alexa-488 conjugated secondary antibodies for 2 hours at room temperature or overnight at 4° C. in 10% goat or donkey serum (Sigma). Samples are then rinsed 2 times in PBS then incubated in DAPI (1:3000) in PBS for 5 minutes prior to mounting on slides. To evaluate the otoprotective efficacy of the compounds, cochlear samples are immunostained using combination of antibodies generated against markers specific for hair cells (Myosin V1, Myosin VIIA, Parvalbumin, etc.), SGNs (TUJ1, Neurofilament, etc.), f-actin, cell death, cell stress, etc. as well as a nuclear stain to identify cell nuclei.
(§3) Immunostained samples are mounted on glass slides and imaged with an LSM880 laser scanning confocal microscope (Zeiss) or an Operetta high-content imager (Perkin Elmer). The entire explant is imaged for all antibody and nuclear labeling in a 3-dimensional X-Y-Z plane in which the Z-plane consists of a stack imaged at intervals of 0.5-5 μm. The total length of the organ of Corti in each explant is then determined and is divided into 4 equal length regions. Basal, middle and apical hair cells or SGNS are counted at the regions approximately 25%, 50% or 75% of the total cochlear length from the base, respectively. Hair cell survival is determined by counting the number of inner and outer hair cells at these three different regions (base, middle and apex) in each cochlear explant and determining the number of missing/dead hair cells per cochlear region. Hair cell counts are obtained by placing a 200 μm length scale bar parallel to the rows of hair cells at each region and manually counting the total number of outer hair cells (OHCs) and inner hair cells (IHCs) within the 200 μm. Similarly, to evaluate the health and survival of SGNs, the density of SGN fibers or soma is also determined per region by manual counting for same region selected for counting hair cells. Nuclear staining is analyzed to confirm the presence or absence of cell nuclei and to evaluate nuclear health. Image analysis and quantification is performed using Zeiss Zen Blue software, or Perkin Elmer Columbus software.
(§4) Neonatal (P2-P4) Sprague-Dawley rats were used for the experiments described here. Animals were euthanized following anesthesia using isoflurane. Rat cochleae were then dissected in cold HBSS medium enriched with glucose. […]

[3] = tested on: spiral ganglion neurons (SGNs); assay: Cochlear explant model: spiral ganglion neuron protection against cisplatin; format: cell-based, Sprague-Dawley rats
Text: as §1, §2, §3, §4

stria vascularis cells = assay: Dissociated strial cultures, caspase 3/7 activation with cisplatin; format: cell-based, Sprague-Dawley rats
Method: For strial explants, the stria vascularis is isolated from the cochlear tissue and transferred to a clean dish with cell culture media. For dissociated strial cultures, the stria vascularis is pulled off the lateral wall and collected separately. Strial cells are then dissociated using a pipette post-trypsinization and seeded onto Poly-d-lysine or collagen-coated 96-well plates. Cells are grown for 48-72 hours to achieve 80-90% confluency before treatment. […] Following treatment, cells are exposed to the Caspase-Glo 3/7 (Promega) reagent for 30 minutes then […] is read on a plate reader. In addition to the cell culture media described above, strial explants can also be maintained in the following media: MEM with Earle's salts, 15 mM HEPES buffer, 2 mM L-glutamine, 10 mg/L MEM non-essential amino acids, 2.5 mg/L fungizone, 100 units/ml penicillin, 100 mg/L streptomycin, 400 μg/L hydrocortisone, 5 mg/L transferrin, 2 nM triiodothyronine, 5 mg/L insulin, […], 10 μg/L epidermal growth factor, and 10% fetal bovine serum.
Following cochlear dissection, Reissner's membrane and the lateral wall were separated and the stria vascularis was then removed from the lateral wall. […] After incubation, cells were lysed using the Promega caspase 3/7 Glo kit and the intensity of caspase 3/7 were read using Perkin-Elmer Enspire plate reader.

[4] = Cisplatin reaction kinetics by HPLC; conditions: 50 μM cisplatin + 50 μM of compound (API) in PBS, pH 7.4, 37° C.
Method: Reaction kinetics between Cisplatin and the compound of interest (nucleophile) were monitored by high performance liquid chromatography. Isocratic separation was achieved using a Waters Spherisorb C8 column (4×250 mm, 5 μm, 80 Å). The flow rate was set to 1.00 mL/min. The mobile phase consisted of 5 mM Sodium Octanesulfonate+5 mM Tetrabutyl Ammonium Hydrogen Sulfate+20 mM Potassium Dihydrogen Phosphate adjusted to pH 5.9. Detection was performed at a wavelength of 210 nm.
Reactions were conducted at equimolar concentrations in buffered aqueous media and held at 37° C. Rate constants (k) were determined by monitoring the disappearance of Cisplatin as a function of time.

[5] = Pharmacokinetic study after intratympanic administration; format: in vivo, rats; conditions: for plasma exposure after IT injection / perilymph and cochlear epithelium exposure after IT injection: single IT injection; for perilymph and cochlear epithelium exposure after IT injection: MCT and/or poloxamer formulation
Method: Female rats (Charles River) weighing 200-300 g of approximately 12-16 weeks of age served as subjects (N=4 per group). Prior to any procedures, animals were anesthetized using a combination of xylazine (10 mg/kg), ketamine (50 mg/kg), and acepromazine (1 mg/kg) for up to an hour via the intraperitoneal route. If needed, an intraoperative booster was administered intraperitoneal representing a one-tenth of the original dose.
Intratympanic injection—Each animal was positioned so that the head was tilted at an angle to favor injection towards the round window niche. […] Formulations were delivered using a perfusion pump at the rate of 2 μL/sec. Contact with the round window membrane was maintained for 30 minutes by placing the animal in a recumbent position. During the procedure and until recovery, animals were placed on a temperature controlled (40° C.) heating pad until consciousness was regained at which time they were returned to the vivarium.
Perilymph sampling procedure—The skin behind the ear of anesthetized rats was shaved and disinfected with povidone-iodine. An incision was then made behind the ear, and muscles were carefully retracted from over the bulla. A hole was drilled through the bulla using a dental burr so that the middle ear was exposed and accessed. The cochlea and the round window membrane were visualized under a stereo surgical microscope. The basal turn of bulla was cleaned by using small cotton ball. A unique microhole was hand drilled through the bony shell of the cochlea (cochlear capsule) adjacent to the round window. Perilymph (about 2 μL) was then collected using a microcapillary inserted into the cochlear scala tympani. Perilymph samples were added to a vial containing 18 μL of acetonitrile/water, stored at −80° C. until analysis.
Cochlear epithelium sampling procedure—Under a dissection scope, the bulla was opened, and the cochlea was exposed by removing all surrounding muscles, blood vessels and bone tissues. Holding the bulla, the cochlear wall bony structure was removed working from the base to the apex of the cochlea, exposing the organ of Corti. The exposed cochlear epithelium was gently dabbed with cotton swab to remove excess of liquid from tissue, carefully transferred to labelled tube. Each 2-mL plastic tube that contained acid washed 2.8 mm stainless steel beads was pre-weighed. The tubes were reweighed after adding cochlea epithelium and weights were recorded. All cochlea epithelium samples were placed in dry ice immediately after collection and stored at −80° C. prior to analysis.
Plasma sampling procedure—Blood samples were collected by cardiac puncture into labeled micro-tubes, containing lithium heparin as anticoagulant. Plasma were immediately harvested from the blood by centrifugation and collection for supernatants. All plasma samples were stored at −80° C. prior to analysis.
Samples were extracted by protein precipitation, then vortexed and centrifuged. The supernatant was collected and diluted with two folds of water. A high-performance liquid chromatography system (Agilent 1200 series) with Waters Cortecs C18 Plus column (50*4.6 mm, 2.7 μm) were used. The flow rate was set at 0.700 mL/min. A gradient method with an analytical run time of 5 minutes was used. Mobile phase A consisted of 0.01% ammonium formate, 0.03% formic acid in water. Mobile phase B consisted of 0.01% ammonium formate, 0.03% formic acid in acetonitrile: methanol (70:30, v/v). The gradient began with 30% B, stepped to 70% B at 2.75 minutes and held for 1 minute and then stepped back to 30% B to re-equilibrate the column.
Ionizations and detection of analyte and internal standard were performed on a triple quadruple mass spectrometer, API 5500 Q-Trap equipped with Turbo IonSpray@, from SCIEX (Toronto, Canada). Electro spray ionization (ESI) mass spectra was operated in the positive ion mode. Carbutamide was used as the internal standard (IS). […]

[6] = tested on: cisplatin-induced hearing loss (CIHL); assay: 3-day acute CIHL animal model, ABR thresholds; format: in vivo; conditions: 3 days
Method: Study Design includes: […] Formulation was delivered IT unilaterally (right ear) 30 min prior CIS. There was gross visual necropsy observation performed at termination. Tissue collected for CCG evaluation • A: Cis IP/Vehicle P407 • B: Cis IP/STS 16 mg/ml in P407 • C: Cis IP/OMY-150 16 mg/ml in P407 • D: Cis IP/OMY-150 50 mg/ml in P407

[7] = 16 mg/ml in P407, IT 30 min prior CIS 12 mg/kg (IP)

SMILES	Cisplatin Binding % bound (in 30 min) at 1:10 ratio [1] [%]	EC100 [2] [µM]	OHC protection ([2]; ex-vivo cochlear explants)	SGN protection ([3]; ex-vivo cochlear explants)	strial cell protection (stria vascularis cells)	protection of hair cells against cisplatin [2]	k [4] [M⁻¹ s⁻¹]	In vivo PK in Cochlear Epithelium (24 h after dosing) [5] [ng/gm CE]	plasma exposure after IT injection [5]	perilymph and cochlear epithelium exposure after IT injection [5]	protection of ABR thresholds [6, 7]	protection of ABR thresholds ([6]; 50 mg/ml in P407, IT 30 min prior CIS 12 mg/kg (IP))	protection of spiral ganglion neurons against cisplatin ([3]; 1.5 hour pretreatment followed by co-treatment at different concentrations with 10 μM cisplatin)	Ex-vivo Efficacy Conc. for complete protection of hair cells ([2]; ex vivo cochlear explants, cisplatin) [µM]
O=C(O)c1c[nH]c(=S)[nH]c1=O [5-carboxy-2-thiouracil]	95	50 to 100	good protection	good protection	good protection									
CCCc1cc(=O)[nH]c(=S)[nH]1 [OMY-141, 6-propyl-2-thiouracil]	95	50 to 100				complete protection	10.27	~300	some plasma exposure	good perilymph and cochlear epithelium exposure				
O=c1cc(-c2ccccc2)[nH]c(=S)[nH]1 [OMY-150, 6-phenyl-2-thiouracil]	97	50				complete protection	0.50	~1000	significantly lower (e.g. up to 10 times or more) plasma exposure than OMY-141; also recorded: lower plasma exposure than sodium thiosulfate (STS)	good perilymph and cochlear epithelium exposure	strong protection	almost complete recovery	complete protection	
O=S([O-])([O-])=S.[Na+].[Na+] [STS, sodium thiosulfate, reference compound]	50						0.52	~1100			less protection than in previous studies			100
